Measurements: US20100266716A1, “Natural Photodynamic Agents and their use” (priority 2007, published 2010)

Experiments:
Format in all cases: cell-based
[1] = system: Salmonella choleraesuis; experiment: MBEC device biofilm photodynamic killing (Example 1); set-up: key to Killing of Salmonella cholerasuis biofilm (eradication or growth): “−” = biofilm eradication at the mentioned conditions (concentration, exposure time and Light source); “+” = biofilm growth; settings: for Killing of Salmonella cholerasuis biofilm (eradication or growth): 16 Hours exposure; for effective as photodynamic agent in killing biofilm organisms: Salmonella choleraesuis and Staphylococcus aureus biofilm, summary of Table 1
Text: (§1) Test microorganisms included Salmonella choleraesuis, Staphylococcus aureus, foodborne pathogens of humans. Test Compounds included Methylene blue, Hemoglobin (blood product), Hemin (blood product), Protoporphyrin (blood product), Annatto Extract (15% Norbixin), beet juice, Canthaxanthin (10%), Beta-carotene (1%), Purple carmine 50%, Carmine lake 60%, Black Carrot extract, Tomato lycopene (5%), sodium copper chlorophyllin, grape skin extract, paprika oleoresin, riboflavin, saffron, titanium dioxide, FD&C blue No1., turmeric oleoresin, FD&C blue No. 2, FD&C Green No. 3, FD&C Red No. 2 (Amaranth), FD&C Red No. 40, FD&C Yellow No. 5, and FD&C Yellow No. 6. Compounds were prepared as 1%, 0.1%, 0.01%, by weight, dissolved in water.
(§2) The light source was a full spectrum fluorescent light or LED light and the contact time was 1 and 16 hours. The study temperature was 37° C.
(§3) Approximately 10^6 organisms in 150 uL Cation Adjusted Mueller Hinton Broth (CAMHB) were placed in each of the wells of a 96 peg MBEC device. The lid of the 96 peg MBEC device was placed on the bottom plate containing organism. The device was placed on a shaker, set to 110 rpm, and incubated at 37° C. for 24 hours to produce biofilms.
(§4) The challenge plates were set up using a sterile 96-well microtitre plate using aseptic techniques in the following manner (one organism per plate, per light exposure time, per light source). Test solutions (200 uL) were placed into each well. The lid was transferred to the challenge plate and exposed to the various light sources for the prescribed exposure times (16 hours). Following the treatment, the pegs were transferred to the recovery media (“recovery plate”) then wrapped in tin foil and incubated at 37° C. for 18 to 24 hours. The recovery plate(s) was wrapped in tin foil, incubated at 37° C. for 24 hours and read visually and by a plate reader, set to an optical density measurement of 630 nm, to determine Minimum Biofilm Eradication Concentration (MBEC) by looking at growth or no growth.

[2] = system: Staphylococcus aureus; experiment: as above; set-up: key to Killing of Staph aureus biofilm (eradication or growth): “−” = biofilm eradication at the mentioned conditions (concentration, exposure time and Light source); “+” = biofilm growth; settings: for Killing of Staph aureus biofilm (eradication or growth): 16 Hours exposure
Text: as §1, §2, §3, §4

[3] = system: E. coli 0157H7; experiment: Photocatalytic food dyes Log10 counts (Example 2)
Text: as §1, §2, §3, §4
(§5) The test was conducted as shown in Example 1, but using Hemin (blood product), Protoporphyrin (blood product), Annatto Extract, and Turmeric. The group of tests organism also included E. Coli 0157H7.

[4] = system: Salmonella choleraesuis; experiment: Photocatalytic food dyes Log10 counts (Example 2); settings: S. choleraesuis, Control 7.28
Text: as §1, §2, §3, §4, §5

[5] = system: Staphylococcus aureus; experiment: Photocatalytic food dyes Log10 counts (Example 2); settings: Staph. aureus
Text: as §1, §2, §3, §4, §5

[6] = system: Pseudomonas syringae HB9; experiment: Photodynamic activity on plant bacterial pathogen (Example 4)
Protocol: Test microorganism included Pseudomonas syringae, a food spoilage microorganism and plant pathogen. Test Compounds included Hemin (blood product), Annatto Extract, and Turmeric. Compounds were prepared as 1%, 0.1%, 0.01%, by weight, in 30% Mueller Hinton Broth in phosphate buffered saline. The light source was a broad spectrum fluorescent light or an LED light and the contact time was 16 hours. The study temperature was 28° C.
Approximately 10^6 organisms in 150 uL Cationic
Adjusted Mueller Hinton Broth were placed in each of the wells of a 96 peg MBEC device. The lid of the 96 peg MBEC device was placed on the bottom plate containing organism. The device was placed on a shaker, set to 110 rpm, and incubated at 28° C. for 24 hours.
The challenge plates were set up using a sterile 96-well microtitre plate using aseptic techniques in the following manner (one organism per plate, per light exposure time, per light source). Test solutions (200 uL) were placed into each well. The lid was transferred to the challenge plate and exposed to the various light sources for the prescribed exposure times (16 hours). Following the treatment, the pegs were transferred to the recovery media (“recovery plate”) then wrapped in tin foil and incubated at 28° C. for 18 to 24 hours.
The recovery plate(s) was wrapped in tin foil, incubated at 28° C. for 24 hours and read visually and by a plate reader, set to an optical density measurement of 630 nm, to determine MBEC growth.

[7] = Fluorescent Light 16 hours, 0.01%, Control 6.51
[8] = Fluorescent Light 16 hours, 0.1%, Control 6.51
[9] = Fluorescent Light 16 hours, 1%, Control 6.51
[10] = LED Light 16 hours, 0.01%, Control 6.36
[11] = LED Light 16 hours, 0.1%, Control 6.36
[12] = LED Light 16 hours, 1%, Control 6.36
[13] = Fluorescent Light 16 hours, 0.01%
[14] = Fluorescent Light 16 hours, 0.1%
[15] = Fluorescent Light 16 hours, 0.01%, Control 6.48
[16] = Fluorescent Light 16 hours, 0.1%, Control 6.48
[17] = Fluorescent Light 16 hours, 1%, Control 6.48
[18] = LED Light 16 hours, 0.01%, Control 6.95
[19] = LED Light 16 hours, 0.1%, Control 6.95
[20] = LED Light 16 hours, 1%, Control 6.95

Compound | Killing of Salmonella cholerasuis biofilm (eradication or growth) ([1]; Fluorescent Light, 0.01%) | Killing of Salmonella cholerasuis biofilm (eradication or growth) ([1]; Fluorescent Light, 0.1%) | Killing of Salmonella cholerasuis biofilm (eradication or growth) ([1]; Fluorescent Light, 1%) | Killing of Salmonella cholerasuis biofilm (eradication or growth) ([1]; LED Light, 0.01%) | Killing of Salmonella cholerasuis biofilm (eradication or growth) ([1]; LED Light, 0.1%) | Killing of Salmonella cholerasuis biofilm (eradication or growth) ([1]; LED Light, 1%) | Killing of Staph aureus biofilm (eradication or growth) ([2]; Fluorescent Light, 0.01%) | Killing of Staph aureus biofilm (eradication or growth) ([2]; Fluorescent Light, 0.1%) | Killing of Staph aureus biofilm (eradication or growth) ([2]; Fluorescent Light, 1%) | Killing of Staph aureus biofilm (eradication or growth) ([2]; LED Light, 0.01%) | Killing of Staph aureus biofilm (eradication or growth) ([2]; LED Light, 0.1%) | Killing of Staph aureus biofilm (eradication or growth) ([2]; LED Light, 1%) | Average Log10 counts [3, 7] | Average Log10 counts [3, 8] | Average Log10 counts [3, 9] | Average Log10 counts [3, 10] | Average Log10 counts [3, 11] | Average Log10 counts [3, 12] | Average Log10 counts [4, 13] | Average Log10 counts [4, 14] | other results
CN(C)c1ccc2nc3ccc(=[N+](C)C)cc-3sc2c1 [Methylene blue, reference compound] | − | − | − | − | − | − | − | − | − | − | − | − | 3.41 Log10 | 0.79 Log10 | 0.35 Log10 | 1.77 Log10 | 0.00 Log10 | 0.00 Log10 | 0.00 Log10 | 0.00 Log10 | Average Log10 counts ([4]; Fluorescent Light 16 hours, 1%): 0.00 Log10; Average Log10 counts ([4]; LED Light 16 hours, 0.01%): 2.27 Log10; Average Log10 counts ([4]; LED Light 16 hours, 0.1%): 0.00 Log10; Average Log10 counts ([4]; LED Light 16 hours, 1%): 3.20 Log10; Average Log10 counts [5, 15]: 3.20 Log10; Average Log10 counts [5, 16]: 0.00 Log10; Average Log10 counts [5, 17]: 0.00 Log10; Average Log10 counts [5, 18]: 5.71 Log10; Average Log10 counts [5, 19]: 5.40 Log10; Average Log10 counts [5, 20]: 4.84 Log10
Hemin | − | − | − | + | + | − | + | + | + | + | + | + | 3.17 Log10 | 3.79 Log10 | 3.06 Log10 | 4.18 Log10 | 4.22 Log10 | 0.00 Log10 | 2.79 Log10 | 3.85 Log10 | effective as photodynamic agent in killing biofilm organisms [1]: Effective; Average Log10 counts ([4]; Fluorescent Light 16 hours, 1%): 4.55 Log10; Average Log10 counts ([4]; LED Light 16 hours, 0.01%): 4.02 Log10; Average Log10 counts ([4]; LED Light 16 hours, 0.1%): 4.48 Log10; Average Log10 counts ([4]; LED Light 16 hours, 1%): 4.74 Log10; Average Log10 counts [5, 15]: 2.21 Log10; Average Log10 counts [5, 16]: 0.79 Log10; Average Log10 counts [5, 17]: 0.00 Log10; Average Log10 counts [5, 18]: 5.52 Log10; Average Log10 counts [5, 19]: 3.75 Log10; Average Log10 counts [5, 20]: 1.51 Log10; Average Log10 growth reductions [6, 13]: 1.07 log10 CFU; Average Log10 growth reductions [6, 14]: 0.92 log10 CFU; Average Log10 growth reductions ([6]; Fluorescent Light 16 hours, 1%): 1.51 log10 CFU; Average Log10 growth reductions ([6]; LED Light 16 hours, 0.01%): 1.48 log10 CFU; Average Log10 growth reductions ([6]; LED Light 16 hours, 0.1%): 1.32 log10 CFU; Average Log10 growth reductions ([6]; LED Light 16 hours, 1%): 3.97 log10 CFU
Protoporphyrin | − | − | − | + | + | − | + | + | + | + | + | + | 0.44 Log10 | 0.57 Log10 | 0.00 Log10 | 4.04 Log10 | 3.48 Log10 | 3.60 Log10 | 2.10 Log10 | 2.33 Log10 | concentration at which useful against Salmonella ([1]; LED light): greater than 1%; effective as photodynamic agent in killing biofilm organisms [1]: Effective; concentration at which useful against Salmonella ([1]; fluorescent light): greater than 0.01%; concentration at which useful against Staph A ([2]; fluorescent light): greater than 0.1%; Average Log10 counts ([4]; Fluorescent Light 16 hours, 1%): 3.32 Log10; Average Log10 counts ([4]; LED Light 16 hours, 0.01%): 3.40 Log10; Average Log10 counts ([4]; LED Light 16 hours, 0.1%): 3.67 Log10; Average Log10 counts ([4]; LED Light 16 hours, 1%): 2.92 Log10; Average Log10 counts [5, 15]: 0.00 Log10; Average Log10 counts [5, 16]: 0.00 Log10; Average Log10 counts [5, 17]: 0.00 Log10; Average Log10 counts [5, 18]: 1.29 Log10; Average Log10 counts [5, 19]: 0.50 Log10; Average Log10 counts [5, 20]: 3.10 Log10
sodium copper chlorophyllin | + | + | + | + | + | + | + | + | + | + | + | + |  |  |  |  |  |  |  |  | 
